Among the data in patent US8962608B2, “Cycloalkylnitrile pyrazole carboxamides as janus kinase inhibitors” (Merck Sharp & Dohme Corp., priority 2011, dated 2015) are IC50 values, retold here.

The target of assay [1] is JAK2 (recombinant purified GST-tagged catalytic domain) (Homo sapiens (Human), UniProt O60674). As to the kind of experiment: biochemical.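 Note: biochemical JAK kinase assay with HTRF detection.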
Assay [2] addresses JAK1 (recombinant purified GST-tagged catalytic domain) (Homo sapiens (Human), UniProt P23458). As to the kind of experiment: biochemical.

Broadly, the IC50 is the concentration at which inhibition is half-maximal.

Sequence of JAK1 (recombinant purified GST-tagged catalytic domain) (P23458 875-1153): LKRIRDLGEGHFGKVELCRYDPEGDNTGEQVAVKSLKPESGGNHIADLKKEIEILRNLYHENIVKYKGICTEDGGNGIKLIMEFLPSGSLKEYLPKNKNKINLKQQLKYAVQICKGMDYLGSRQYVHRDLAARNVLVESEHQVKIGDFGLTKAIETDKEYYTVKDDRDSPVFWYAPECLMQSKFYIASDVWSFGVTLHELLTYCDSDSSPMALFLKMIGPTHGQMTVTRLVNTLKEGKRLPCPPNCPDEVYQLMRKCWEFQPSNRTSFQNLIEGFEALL
Sequence of JAK2 (recombinant purified GST-tagged catalytic domain) (O60674 849-1124): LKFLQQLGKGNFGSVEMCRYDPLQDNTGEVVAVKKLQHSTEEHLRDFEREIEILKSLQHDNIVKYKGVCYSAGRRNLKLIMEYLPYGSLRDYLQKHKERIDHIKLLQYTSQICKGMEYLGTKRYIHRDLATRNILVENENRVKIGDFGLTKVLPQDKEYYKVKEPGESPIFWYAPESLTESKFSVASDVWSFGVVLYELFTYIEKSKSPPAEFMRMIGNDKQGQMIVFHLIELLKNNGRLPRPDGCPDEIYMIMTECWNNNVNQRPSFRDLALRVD

On to `N#C[C@H]1CCCC[C@@H]1n1cc(C(N)=O)c(Nc2cnc3c(c2)CNC3=O)n1` (single isomer, unassigned) [Example 17-76, 1-[(1R,2R or 1S,2S)-2-cyanocyclohexyl]-3-[(7-oxo-6,7-dihydro-5H-pyrrolo[3,4-b]pyridin-3-yl)amino]-1H-pyrazole-4-carboxamide], for which the results for the IC50 in assay [1] and in assay [2] were 7 nM and 0.55 nM, respectively.

For `COC(=O)c1ncc(Nc2nn([C@H]3CCCC[C@@H]3C#N)cc2C(N)=O)cc1C` (single isomer, unassigned) [Example 17-78, methyl 5-({4-carbamoyl-1-[(1R,2R or 1S,2S)-2-cyanocyclohexyl]-1H-pyrazol-3-yl}amino)-3-methylpyridine-2-carboxylate], the IC50 in assay [1] was 17 nM; in assay [2], 6 nM.

For the compound `N#Cc1ncc(Nc2nn([C@H]3CCCC[C@@H]3C#N)cc2C(N)=O)cc1F` (single isomer, unassigned) [Example 17-79, 1-[(1R,2R or 1S,2S)-2-cyanocyclohexyl]-3-[(6-cyano-5-fluoropyridin-3-yl)amino]-1H-pyrazole-4-carboxamide], the IC50 in assay [1] was found to be 40 nM; in assay [2], 7 nM.

On to `N#C[C@H]1CCCC[C@@H]1n1cc(C(N)=O)c(Nc2ccc(C3CC3)nc2)n1` (single isomer, unassigned) [Example 17-80, 1-[(1R,2R or 1S,2S)-2-cyanocyclohexyl]-3-[(6-cyclopropylpyridin-3-yl)amino]-1H-pyrazole-4-carboxamide], for which the IC50 in assay [1] came out at 26 nM; in assay [2], 12 nM.

For the compound `N#C[C@H]1CCCC[C@@H]1n1cc(C(N)=O)c(Nc2ccc(S(=O)(=O)Nc3ccncc3)cc2)n1` (single isomer, unassigned) [Example 17-81, 1-[(1R,2R or 1S,2S)-2-cyanocyclohexyl]-3-{[4-(pyridin-4-ylsulfamoyl)phenyl]amino}-1H-pyrazole-4-carboxamide], the IC50 in assay [1] amounted to 2 nM; in assay [2], 0.35 nM.

`N#C[C@H]1CCCC[C@@H]1n1cc(C(N)=O)c(Nc2ccc(S(=O)(=O)NC3CCCCC3)cc2)n1` (single isomer, unassigned) [Example 17-82, 1-[(1R,2R or 1S,2S)-2-cyanocyclohexyl]-3-{[4-(cyclohexylsulfamoyl)phenyl]amino}-1H-pyrazole-4-carboxamide]: the IC50 in assay [1] was determined as 1 nM; in assay [2] it was 0.5 nM.

For the compound `N#C[C@H]1CCCC[C@@H]1n1cc(C(N)=O)c(Nc2ccc(S(=O)(=O)NCc3ccccc3)cc2)n1` (single isomer, unassigned) [Example 17-83, 3-{[4-(benzylsulfamoyl)phenyl]amino}-1-[(1R,2R or 1S,2S)-2-cyanocyclohexyl]-1H-pyrazole-4-carboxamide], the IC50 came to 0.9 nM in assay [1] and 0.2 nM in assay [2].

With `N#C[C@H]1CCCC[C@@H]1n1cc(C(N)=O)c(Nc2ccc(S(=O)(=O)NCc3cccnc3)cc2)n1` (single isomer, unassigned) [Example 17-84, 1-[(1R,2R or 1S,2S)-2-cyanocyclohexyl]-3-({4-[(pyridin-3-ylmethyl)sulfamoyl]phenyl}amino)-1H-pyrazole-4-carboxamide], the results for the IC50 in assay [1] and in assay [2] were 1 nM and 0.3 nM, respectively.

With `N#C[C@H]1CCCC[C@@H]1n1cc(C(N)=O)c(Nc2ccc(S(=O)(=O)NCc3ccccn3)cc2)n1` (single isomer, unassigned) [Example 17-85, 1-[(1R,2R or 1S,2S)-2-cyanocyclohexyl]-3-({4-[(pyridin-2-ylmethyl)sulfamoyl]phenyl}amino)-1H-pyrazole-4-carboxamide], the values for the IC50 in assay [1] and in assay [2] were 4 nM and 0.9 nM, respectively.

For the compound `N#C[C@H]1CCCC[C@@H]1n1cc(C(N)=O)c(Nc2ccc(S(=O)(=O)NCc3ccncc3)cc2)n1` (single isomer, unassigned) [Example 17-86, 1-[(1R,2R or 1S,2S)-2-cyanocyclohexyl]-3-({4-[(pyridin-4-ylmethyl)sulfamoyl]phenyl}amino)-1H-pyrazole-4-carboxamide], the IC50 is 0.95 nM in assay [1] and 0.25 nM in assay [2].

Regarding `N#C[C@H]1CCCC[C@@H]1n1cc(C(N)=O)c(Nc2ccc(S(=O)(=O)NCCN3CCCC3)cc2)n1` (single isomer, unassigned) [Example 17-87, 1-[(1R,2R or 1S,2S)-2-cyanocyclohexyl]-3-({4-[(2-pyrrolidin-1-ylethyl)sulfamoyl]phenyl}amino)-1H-pyrazole-4-carboxamide], the IC50 in assay [1] is 2 nM; in assay [2], 0.5 nM.

For `Cc1cccc(C)c1NS(=O)(=O)c1ccc(Nc2nn([C@H]3CCCC[C@@H]3C#N)cc2C(N)=O)cc1` (single isomer, unassigned) [Example 17-88, 1-[(1R,2R or 1S,2S)-2-cyanocyclohexyl]-3-({4-[(2,6-dimethylphenyl)sulfamoyl]phenyl}amino)-1H-pyrazole-4-carboxamide], the IC50 was 9 nM in assay [1] and 1 nM in assay [2].

As to `CC(=O)N1CCN(S(=O)(=O)c2ccc(Nc3nn([C@H]4CCCC[C@@H]4C#N)cc3C(N)=O)cc2)CC1` (single isomer, unassigned) [Example 17-89, 3-({4-[(4-acetylpiperazin-1-yl)sulfonyl]phenyl}amino)-1-[(1R,2R or 1S,2S)-2-cyanocyclohexyl]-1H-pyrazole-4-carboxamide], the values for the IC50 in assay [1] and in assay [2] were 1 nM and 0.5 nM, respectively.

Regarding `N#C[C@H]1CCCC[C@@H]1n1cc(C(N)=O)c(Nc2ccc(S(=O)(=O)NCc3ccc(Cl)cc3)cc2)n1` (single isomer, unassigned) [Example 17-90, 3-({4-[(4-chlorobenzyl)sulfamoyl]phenyl}amino)-1-[(1R,2R or 1S,2S)-2-cyanocyclohexyl]-1H-pyrazole-4-carboxamide], the IC50 is 4 nM in assay [1] and 1 nM in assay [2].

For `N#C[C@H]1CCCC[C@@H]1n1cc(C(N)=O)c(Nc2ccc(S(=O)(=O)NCc3ccccc3Cl)cc2)n1` (single isomer, unassigned) [Example 17-91, 3-({4-[(2-chlorobenzyl)sulfamoyl]phenyl}amino)-1-[(1R,2R or 1S,2S)-2-cyanocyclohexyl]-1H-pyrazole-4-carboxamide], the IC50 came out at 2 nM in assay [1] and 0.5 nM in assay [2].

Regarding `N#C[C@H]1CCCC[C@@H]1n1cc(C(N)=O)c(Nc2ccc(S(=O)(=O)N3CCC4(CC3)OCCO4)cc2)n1` (single isomer, unassigned) [Example 17-92, 1-[(1R,2R or 1S,2S)-2-cyanocyclohexyl]-3-{[4-(1,4-dioxa-8-azaspiro[4.5]dec-8-ylsulfonyl)phenyl]amino}-1H-pyrazole-4-carboxamide], the results for the IC50 in assay [1] and in assay [2] were 3 nM and 0.9 nM, respectively.

`N#C[C@H]1CCCC[C@@H]1n1cc(C(N)=O)c(Nc2ccc(S(=O)(=O)Nc3ccc(C(F)(F)F)cc3)cc2)n1` (single isomer, unassigned) [Example 17-95, 1-[(1R,2R or 1S,2S)-2-cyanocyclohexyl]-3-[(4-{[4-(trifluoromethyl)phenyl]sulfamoyl}phenyl)amino]-1H-pyrazole-4-carboxamide]: the IC50 is 31 nM in assay [1] and 6 nM in assay [2].

Consider `N#C[C@H]1CCCC[C@@H]1n1cc(C(N)=O)c(Nc2ccc(S(=O)(=O)NCc3ccc(C(F)(F)F)cc3)cc2)n1` (single isomer, unassigned) [Example 17-96, 1-[(1R,2R or 1S,2S)-2-cyanocyclohexyl]-3-[(4-{[4-(trifluoromethyl)benzyl]sulfamoyl}phenyl)amino]-1H-pyrazole-4-carboxamide], for which the results for the IC50 in assay [1] and in assay [2] were 7 nM and 2 nM, respectively.

Take `COc1cccc(N2CCN(S(=O)(=O)c3ccc(Nc4nn([C@H]5CCCC[C@@H]5C#N)cc4C(N)=O)cc3)CC2)c1` (single isomer, unassigned) [Example 17-97, 1-[(1R,2R or 1S,2S)-2-cyanocyclohexyl]-3-[(4-{[4-(3-methoxyphenyl)piperazin-1-yl]sulfonyl}phenyl)amino]-1H-pyrazole-4-carboxamide]: the results for the IC50 in assay [1] and in assay [2] were 24 nM and 9 nM, respectively.

Regarding `COCCNS(=O)(=O)c1ccc(Nc2nn([C@H]3CCCC[C@@H]3C#N)cc2C(N)=O)cc1` (single isomer, unassigned) [Example 17-98, 1-[(1R,2R or 1S,2S)-2-cyanocyclohexyl]-3-({4-[(2-methoxyethyl)sulfamoyl]phenyl}amino)-1H-pyrazole-4-carboxamide], the IC50 in assay [1] came out at 1 nM; in assay [2], 0.25 nM.

In the case of `N#C[C@H]1CCCC[C@@H]1n1cc(C(N)=O)c(Nc2ccc(C(F)(F)F)nc2)n1` (single isomer, unassigned) [Example 17-101, 1-[(1S,2S or 1R,2R)-2-cyanocyclohexyl]-3-{[6-(trifluoromethyl)pyridin-3-yl]amino}-1H-pyrazole-4-carboxamide], the values for the IC50 in assay [1] and in assay [2] were 9 nM and 2 nM, respectively.

Turning to `N#C[C@H]1CCCC[C@@H]1n1cc(C(N)=O)c(Nc2ccc(Cl)cc2)n1` (single isomer, unassigned) [Example 17-107, 3-[(4-chlorophenyl)amino]-1-[(1S,2S or 1R,2R)-2-cyanocyclohexyl]-1H-pyrazole-4-carboxamide], the IC50 came to 11 nM in assay [1] and 0.95 nM in assay [2].

Consider `N#C[C@H]1CCCC[C@@H]1n1cc(C(N)=O)c(Nc2ccc(Cl)cc2)n1` (single isomer, unassigned) [Example 17-108, 3-[(4-chlorophenyl)amino]-1-[(1S,2S or 1R,2R)-2-cyanocyclohexyl]-1H-pyrazole-4-carboxamide], for which the IC50 was 120 nM in assay [1] and 8 nM in assay [2].

Consider `N#C[C@H]1CCCC[C@@H]1n1cc(C(N)=O)c(Nc2ccc(C(F)(F)F)nc2)n1` (single isomer, unassigned) [Example 17-109, 1-[(1S,2S or 1R,2R)-2-cyanocyclohexyl]-3-{[6-(trifluoromethyl)pyridin-3-yl]amino}-1H-pyrazole-4-carboxamide], for which the IC50 is 260 nM in assay [1] and 50 nM in assay [2].
